Converted amounts (≈) assume the structure as drawn. Bounds are passed on as bounds.

The subject of one data set is Staphylococcus aureus. The data set can be described thus: Antibacterial activity against Staphylococcus aureus ATCC 25923 incubated in MHB II under aerobic condition for 18 hrs using initial inoculum of 5 x 10^5 CFU/ml by serial dilution method. It is filed as functional. Conditions: ATCC 25923, 18 h.
The test system of data set [1] is Enterococcus faecalis. Nature of the data set: Antibacterial activity against Enterococcus faecalis ATCC 29212 incubated in MHB II under aerobic condition for 18 hrs using initial inoculum of 5 x 10^5 CFU/ml by serial dilution method. The format is functional. As to conditions: ATCC 29212, 18 h.
The next data set concerns Bacillus subtilis. The data set can be described thus: Antibacterial activity against Bacillus subtilis ATCC 6633 incubated in MHB II under aerobic condition for 18 hrs using initial inoculum of 5 x 10^5 CFU/ml by serial dilution method. The format is functional. As to conditions: ATCC 6633, 18 h.
Data set [2] relates to Erythrocyte. The data set can be described thus: Haemolytic activity in human erythrocytes assessed as haemolytic index by measuring hemoglobin release at 0.5 to 128 mg/L incubated for 1 hr by microplate spectrophotometry relative to control. It is filed as ADME, cell-based. As to conditions: erythrocyte, 1 h.
Data set [3] concerns Staphylococcus epidermidis. Nature of the data set: Antibacterial activity against Staphylococcus epidermidis PCM 2118 incubated in MHB II under aerobic condition for 18 hrs using initial inoculum of 5 x 10^5 CFU/ml by serial dilution method. The format is functional. As to conditions: PCM 2118, 18 h.
Data set [4] concerns Candida albicans. Nature of the data set: Antifungal activity against Candida albicans ATCC 10231 incubated in sabouraud liquid medium under aerobic condition for 48 hrs using initial inoculum of 10^3 CFU/ml by serial dilution method. Conditions: ATCC 10231, 48 h. The format is functional.
A further data set deals with Yarrowia lipolytica. Nature of the data set: Antifungal activity against Candida lipolytica PCM 2680 incubated in sabouraud liquid medium under aerobic condition for 48 hrs using initial inoculum of 10^3 CFU/ml by serial dilution method. It is filed as functional. As to conditions: PCM 2680, 48 h.
Data set [5] in a line: Haemolytic activity in human erythrocytes assessed as haemolytic index by measuring hemoglobin release at 128 mg/L incubated for 1 hr by microplate spectrophotometry. Conditions: read-out: HI. The format is ADME, cell-based, Erythrocyte.
A further data set deals with Klebsiella pneumoniae. The data set can be described thus: Antibacterial activity against Klebsiella pneumoniae ATCC 700603 incubated in MHB II under aerobic condition for 18 hrs using initial inoculum of 5 x 10^5 CFU/ml by serial dilution method. It is filed as functional. As to conditions: ATCC 700603, 18 h.
A further data set relates to Proteus mirabilis. Nature of the data set: Antibacterial activity against Proteus mirabilis PCM 543 incubated in MHB II under aerobic condition for 18 hrs using initial inoculum of 5 x 10^5 CFU/ml by serial dilution method. It is filed as functional. As to conditions: PCM 543, 18 h.
A further data set relates to Escherichia coli. Nature of the data set: Antibacterial activity against Escherichia coli ATCC 25922 incubated in MHB II under aerobic condition for 18 hrs using initial inoculum of 5 x 10^5 CFU/ml by serial dilution method. As to conditions: ATCC 25922, 18 h. It is filed as functional.
A short description of data set [6]: Haemolytic activity in human erythrocytes assessed as haemolytic index by measuring hemoglobin release at 64 mg/L incubated for 1 hr by microplate spectrophotometry. The format is ADME, cell-based, Erythrocyte. Conditions: read-out: HI.
The nature of data set [7]: Haemolytic activity in human erythrocytes assessed as haemolytic index by measuring hemoglobin release at 32 mg/L incubated for 1 hr by microplate spectrophotometry. As to conditions: read-out: HI. The format is ADME, cell-based, Erythrocyte.
For a further data set, the system named is Pseudomonas aeruginosa. Nature of the data set: Antibacterial activity against Pseudomonas aeruginosa ATCC 9027 incubated in MHB II under aerobic condition for 18 hrs using initial inoculum of 5 x 10^5 CFU/ml by serial dilution method. It is filed as functional. Conditions: ATCC 9027, 18 h.
The test system of data set [8] is Erythrocyte. The data set can be described thus: Haemolytic activity in human erythrocytes assessed as hemoglobin release at 8 to 64 mg/L incubated for 1 hr by microplate spectrophotometry. It is filed as ADME, cell-based.
The test system of data set [9] is Candida albicans. Nature of the data set: […] activity against Candida albicans ATCC 10231 by antimicrobial susceptibility based testing method. The format is functional.
Data set [10] deals with Enterococcus faecalis. Nature of the data set: microbe, parasite or virus in culture. As to conditions: ATCC 29212.
Description: Antibacterial activity against Enterococcus faecalis ATCC 29212 by antimicrobial susceptibility based testing method

With `C[C@@H]1CC[C@@]2(OC1)O[C@H]1C[C@H]3[C@@H]4CC=C5C[C@@H](O[C@@H]6O[C@H](CO)[C@@H](O)[C@H](O)[C@H]6N)CC[C@]5(C)[C@H]4CC[C@]3(C)[C@H]1[C@@H]2C.Cl`, the MIC was 16 µg/mL in the data set with Staphylococcus aureus; 16 µg/mL with Enterococcus faecalis [1]; 8 µg/mL in the data set on Bacillus subtilis; 16 µg/mL in [3]; 2 µg/mL in the data set with Candida albicans [4]; 1 µg/mL against Yarrowia lipolytica. Moreover, in the data set on Erythrocyte [2], the Activity entry is listed as “Non-Toxic”.

For `C[C@@H]1CC[C@@]2(OC1)O[C@H]1C[C@H]3[C@@H]4CC=C5C[C@@H](O[C@@H]6O[C@H](CO)[C@@H](O)[C@H](O)[C@H]6NC(=O)[C@@H]6CCCN6)CC[C@]5(C)[C@H]4CC[C@]3(C)[C@H]1[C@@H]2C`, the hemolysis at 1 h, 128 mg/L in [5] is 100%. In addition, the MIC in the data set on Klebsiella pneumoniae was more than 128 µg/mL; in the data set on Staphylococcus aureus, 4 µg/mL (≈ 5.94 µM); against Proteus mirabilis it was more than 128 µg/mL; against Escherichia coli, more than 128 µg/mL; with Enterococcus faecalis [1] it was 4 µg/mL (≈ 5.94 µM); in the data set with Bacillus subtilis, 8 µg/mL (≈ 11.9 µM). For the same compound, the MIC is 4 µg/mL (≈ 5.94 µM) in data set [3] and more than 128 µg/mL in the data set on Pseudomonas aeruginosa. Also, the hemolysis at 1 h, 64 mg/L in data set [6] amounted to 100%. Moreover, in [7], the hemolysis at 1 h, 32 mg/L was found to be 46%.

Turning to `C[C@@H]1CC[C@@]2(OC1)O[C@H]1C[C@H]3[C@@H]4CC=C5C[C@@H](O[C@@H]6O[C@H](CO)[C@@H](O)[C@H](O)[C@H]6NC(=O)[C@H](C)NC(=O)[C@H](C)N)CC[C@]5(C)[C@H]4CC[C@]3(C)[C@H]1[C@@H]2C`, the hemolysis at 1 h, 128 mg/L in data set [5] came to 74%. Further, the MIC with Klebsiella pneumoniae was more than 128 µg/mL; in the data set with Staphylococcus aureus, 128 µg/mL (≈ 178 µM); in the data set with Proteus mirabilis, more than 128 µg/mL; in the data set on Escherichia coli it was more than 128 µg/mL; in the data set with Enterococcus faecalis [1], more than 128 µg/mL; with Bacillus subtilis it was 64 µg/mL (≈ 89.1 µM). The MIC in data set [3] is 128 µg/mL (≈ 178 µM); in the data set with Pseudomonas aeruginosa it was more than 128 µg/mL; against Candida albicans [4], 64 µg/mL (≈ 89.1 µM); with Yarrowia lipolytica, 32 µg/mL (≈ 44.6 µM). In addition, the hemolysis at 1 h, 64 mg/L in data set [6] was 57%.

On to `C[C@@H]1CC[C@@]2(OC1)O[C@H]1C[C@H]3[C@@H]4CC=C5C[C@@H](O[C@@H]6O[C@H](CO)[C@@H](O)[C@H](O)[C@H]6NC(=O)CN)CC[C@]5(C)[C@H]4CC[C@]3(C)[C@H]1[C@@H]2C`, for which the hemolysis at 1 h, 128 mg/L in [5] was determined as 16%. Besides, the MIC in the data set on Klebsiella pneumoniae was more than 128 µg/mL; in the data set with Staphylococcus aureus, 64 µg/mL (≈ 101 µM); against Proteus mirabilis it was more than 128 µg/mL; against Escherichia coli, more than 128 µg/mL; in the data set on Enterococcus faecalis [1], 64 µg/mL (≈ 101 µM); in the data set on Bacillus subtilis, 64 µg/mL (≈ 101 µM). The MIC in data set [3] is 64 µg/mL (≈ 101 µM); against Pseudomonas aeruginosa, more than 128 µg/mL; against Candida albicans [4] it was 64 µg/mL (≈ 101 µM); with Yarrowia lipolytica it was 64 µg/mL (≈ 101 µM). Also, the Activity entry in the data set with Erythrocyte [8] is on record as “Toxic”.

In the case of `C[C@@H]1CC[C@@]2(OC1)O[C@H]1C[C@H]3[C@@H]4CC=C5C[C@@H](O[C@@H]6O[C@H](CO)[C@@H](O)[C@H](O)[C@H]6NC(=O)[C@@H](O)CO)CC[C@]5(C)[C@H]4CC[C@]3(C)[C@H]1[C@@H]2C`, in data set [5], the hemolysis at 1 h, 128 mg/L was determined as 56%. Further, the MIC against Klebsiella pneumoniae, with Staphylococcus aureus, against Proteus mirabilis, against Escherichia coli, in the data set on Enterococcus faecalis [1] and against Bacillus subtilis was more than 128 µg/mL in each case. The MIC in [3] is more than 128 µg/mL; in the data set with Pseudomonas aeruginosa, more than 128 µg/mL; in the data set on Candida albicans [4], 16 µg/mL (≈ 24.1 µM); with Yarrowia lipolytica, 2 µg/mL (≈ 3.01 µM). For the same compound, the hemolysis at 1 h, 64 mg/L in [6] amounted to 27%.

In turn, `C[C@@H]1[C@H](O)[C@@H](C)/C=C/C=C/C=C/C=C/C=C/C=C/C=C/[C@H](O[C@@H]2O[C@H](C)[C@@H](O)[C@H](N)[C@@H]2O)C[C@@H]2O[C@](O)(C[C@@H](O)C[C@@H](O)[C@H](O)CC[C@@H](O)C[C@@H](O)CC(=O)O[C@H]1C)C[C@H](O)[C@H]2C(=O)O` [AMPHOTERICIN B] showed an MIC in the data set on Candida albicans [9] of 0.5 µg/mL (≈ 0.541 µM).

In the data set on Enterococcus faecalis [10], `CN[C@H](CC(C)C)C(=O)N[C@H]1C(=O)N[C@@H](CC(N)=O)C(=O)N[C@H]2C(=O)N[C@H]3C(=O)N[C@H](C(=O)N[C@H](C(=O)O)c4cc(O)cc(O)c4-c4cc3ccc4O)[C@H](O)c3ccc(c(Cl)c3)Oc3cc2cc(c3O[C@@H]2O[C@H](CO)[C@@H](O)[C@H](O)[C@H]2O[C@H]2C[C@](C)(N)[C@H](O)[C@H](C)O2)Oc2ccc(cc2Cl)[C@H]1O` [VANCOMYCIN] registered an MIC of 2 µg/mL (≈ 1.38 µM).
